Patent US9642869B2, “Boronic acid derivatives and therapeutic uses thereof” (Rempex Pharmaceuticals, Inc., priority 2013, dated 2017)
pKi: −log10 of the molar value. Read-outs that look alike come from different tables or passages of the source.

What was measured:
[1] = system: KPC-2 KP1004; test: Aztreonam potentiation (MPC@4); format: cell-based; settings: minimum BLI concentration inhibiting growth with 4 μg/mL aztreonam
[2] = system: OXA-48 KP1086; test: Biapenem potentiation (MPC@1); format: cell-based; settings: minimum BLI concentration inhibiting growth with 1 μg/mL biapenem
Description: (§1) Biapenem was present in the test medium at 1 μg/mL. […] Table 3 summarizes the BLI potency of biapenem potentiation (MPC@1) for two strains overexpressing class A (KPC) and class D (OXA-48) carbapenemases. Biapenem MIC for each strain is also shown.

[3] = system: KP1004 KPC-2; test: Biapenem potentiation (MPC@1); format: cell-based; settings: minimum BLI concentration inhibiting growth with 1 μg/mL biapenem
Description: as §1

[4] = system: ECL1002; format: cell-based; settings: minimum BLI concentration inhibiting growth with tigemonam at 4 μg/mL
[5] = system: CTX-M-15 KP1009; format: cell-based
[6] = target: SHV-12 (Klebsiella pneumoniae, UniProt P0AD64, E235K/G234S/L31Q); test: Inhibition of nitrocefin cleavage by purified enzyme (Ki); format: biochemical; settings: nitrocefin reporter substrate, 10 min preincubation; read-out: Ki (SHV-12, NCF)
Description: Purified enzymes were mixed with various concentrations of inhibitors in reaction buffer and incubated for 10 min at room temperature. Nitrocefin was added and substrate cleavage profiles were recorded at 490 nm every 10 sec for 10 min.

[7] = system: SHV-5 ec308; test: Aztreonam potentiation (MPC@4); format: cell-based; settings: minimum BLI concentration inhibiting growth with 4 μg/mL aztreonam
[8] = system: SHV-5 ec308; format: cell-based; settings: minimum BLI concentration inhibiting growth with tigemonam at 4 μg/mL
[9] = system: ECL1002; test: Aztreonam potentiation (MPC@4); format: cell-based; settings: minimum BLI concentration inhibiting growth with 4 μg/mL aztreonam
[10] = system: CTX-M-14 KP1005; format: cell-based
[11] = minimum BLI concentration inhibiting growth with tigemonam at 4 μg/mL

Sequence of SHV-12 (P0AD64 22-286 L31Q/G234S/E235K): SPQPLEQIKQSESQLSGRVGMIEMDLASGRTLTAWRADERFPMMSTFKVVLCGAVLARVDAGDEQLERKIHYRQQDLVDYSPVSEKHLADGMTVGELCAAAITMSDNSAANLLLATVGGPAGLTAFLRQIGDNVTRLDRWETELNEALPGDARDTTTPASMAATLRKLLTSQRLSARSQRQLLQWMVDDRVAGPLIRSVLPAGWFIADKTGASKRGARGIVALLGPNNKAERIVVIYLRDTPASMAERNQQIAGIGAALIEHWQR

Row | SMILES | AZT MPC4 KPC-2 KP1004 [1] | BPM MPC1 OXA-48 KP1086 [2] | BPM MPC1 KP1004 KPC-2 [3] | TIG MPC4 ECL1002 [4] | TIG MPC4 CTX-M-15 KP1009 [5, 11] | pKi [6] | AZT MPC4 SHV-5 ec308 [7] | TIG MPC4 SHV-5 ec308 [8] | AZT MPC4 ECL1002 [9] | TIG MPC4 CTX-M-14 KP1005 [10, 11] | TIG MPC4 CTX-M-15 KP1009 [5] | TIG MPC4 CTX-M-14 KP1005 [10]
1 | O=C(CSC(F)(F)F)N[C@H]1Cc2cccc(C(=O)O)c2OB1O [Compound 1, (R)-2-hydroxy-3-(2-(trifluoromethylthio)acetamido)-3,4-dihydro-2H-benzo[e][1,2]oxaborinine-8-carboxylic acid] | Y (MIC of 1 μg/mL to 10 μg/mL) | Y (MIC of 1 μg/mL to 10 μg/mL) | X (MIC of less than 1 μg/mL) | X (MIC of less than 1 μg/mL) | Y (MIC of 1 μg/mL to 10 μg/mL) | > 9.00 | X (MIC of less than 1 μg/mL) | X (MIC of less than 1 μg/mL) | Y (MIC of 1 μg/mL to 10 μg/mL) | Y (MIC of 1 μg/mL to 10 μg/mL) |  | 
2 | O=C(N[C@H]1Cc2cccc(C(=O)O)c2OB1O)c1cncs1 [Compound 15, (R)-2-hydroxy-3-(thiazole-5-carboxamido)-3,4-dihydro-2H-benzo[e][1,2]oxaborinine-8-carboxylic acid] | Y (MIC of 1 μg/mL to 10 μg/mL) | Y (MIC of 1 μg/mL to 10 μg/mL) | X (MIC of less than 1 μg/mL) | Y (MIC of 1 μg/mL to 10 μg/mL) |  | > 9.00 | X (MIC of less than 1 μg/mL) | Y (MIC of 1 μg/mL to 10 μg/mL) | Y (MIC of 1 μg/mL to 10 μg/mL) |  | Y (key: X: MIC of less than 1 μg/mL; Y: MIC of 1 μg/mL to 10 μg/mL; Z: MIC of greater than 10 μg/mL) | Y (key: X: MIC of less than 1 μg/mL; Y: MIC of 1 μg/mL to 10 μg/mL; Z: MIC of greater than 10 μg/mL)
3 | O=C(N[C@H]1Cc2cccc(C(=O)O)c2OB1O)c1cncc(F)c1 [Compound 14, (R)-3-(5-fluoronicotinamido)-2-hydroxy-3,4-dihydro-2H-benzo[e][1,2]oxaborinine-8-carboxylic acid] | Y (MIC of 1 μg/mL to 10 μg/mL) | Y (MIC of 1 μg/mL to 10 μg/mL) | X (MIC of less than 1 μg/mL) | Y (MIC of 1 μg/mL to 10 μg/mL) |  | > 9.00 | Y (MIC of 1 μg/mL to 10 μg/mL) | Y (MIC of 1 μg/mL to 10 μg/mL) | Y (MIC of 1 μg/mL to 10 μg/mL) |  | Y (key: X: MIC of less than 1 μg/mL; Y: MIC of 1 μg/mL to 10 μg/mL; Z: MIC of greater than 10 μg/mL) | Y (key: X: MIC of less than 1 μg/mL; Y: MIC of 1 μg/mL to 10 μg/mL; Z: MIC of greater than 10 μg/mL)
4 | CN(C)C(=O)CC(=O)N[C@H]1Cc2cccc(C(=O)O)c2OB1O [Compound 10, (R)-3-(3-(dimethylamino)-3-oxopropanamido)-2-hydroxy-3,4-dihydro-2H-benzo[e][1,2]oxaborinine-8-carboxylic acid] | X (MIC of less than 1 μg/mL) | Y (MIC of 1 μg/mL to 10 μg/mL) | X (MIC of less than 1 μg/mL) | X (MIC of less than 1 μg/mL) |  | > 9.00 | Y (MIC of 1 μg/mL to 10 μg/mL) | Y (MIC of 1 μg/mL to 10 μg/mL) | Y (MIC of 1 μg/mL to 10 μg/mL) |  | X (key: X: MIC of less than 1 μg/mL; Y: MIC of 1 μg/mL to 10 μg/mL; Z: MIC of greater than 10 μg/mL) | Y (key: X: MIC of less than 1 μg/mL; Y: MIC of 1 μg/mL to 10 μg/mL; Z: MIC of greater than 10 μg/mL)
5 | O=C(N[C@H]1Cc2cccc(C(=O)O)c2OB1O)c1cncnc1 [Compound 18, (R)-2-hydroxy-3-(pyrimidine-5-carboxamido)-3,4-dihydro-2H-benzo[e][1,2]oxaborinine-8-carboxylic acid] | Y (MIC of 1 μg/mL to 10 μg/mL) | Y (MIC of 1 μg/mL to 10 μg/mL) | Y (MIC of 1 μg/mL to 10 μg/mL) | Y (MIC of 1 μg/mL to 10 μg/mL) |  | > 9.00 | Y (MIC of 1 μg/mL to 10 μg/mL) | Y (MIC of 1 μg/mL to 10 μg/mL) | Y (MIC of 1 μg/mL to 10 μg/mL) |  | Y (key: X: MIC of less than 1 μg/mL; Y: MIC of 1 μg/mL to 10 μg/mL; Z: MIC of greater than 10 μg/mL) | Y (key: X: MIC of less than 1 μg/mL; Y: MIC of 1 μg/mL to 10 μg/mL; Z: MIC of greater than 10 μg/mL)
6 | NC(=O)C(=O)N[C@H]1Cc2cccc(C(=O)O)c2OB1O [Compound 17, (R)-3-(2-amino-2-oxoacetamido)-2-hydroxy-3,4-dihydro-2H-benzo[e][1,2]oxaborinine-8-carboxylic acid] | Y (MIC of 1 μg/mL to 10 μg/mL) | Y (MIC of 1 μg/mL to 10 μg/mL) | X (MIC of less than 1 μg/mL) | Y (MIC of 1 μg/mL to 10 μg/mL) |  | 8.00 to 9.00 | X (MIC of less than 1 μg/mL) | Y (MIC of 1 μg/mL to 10 μg/mL) | Y (MIC of 1 μg/mL to 10 μg/mL) |  | Y (key: X: MIC of less than 1 μg/mL; Y: MIC of 1 μg/mL to 10 μg/mL; Z: MIC of greater than 10 μg/mL) | Z (key: X: MIC of less than 1 μg/mL; Y: MIC of 1 μg/mL to 10 μg/mL; Z: MIC of greater than 10 μg/mL)
7 | O=C(COCc1ccccc1)N[C@H]1Cc2cccc(C(=O)O)c2OB1O [CPD B, reference compound] | Z (MIC of greater than 10 μg/mL) | Z (MIC of greater than 10 μg/mL) | X (MIC of less than 1 μg/mL) | Y (MIC of 1 μg/mL to 10 μg/mL) |  | > 9.00 | Y (MIC of 1 μg/mL to 10 μg/mL) | Y (MIC of 1 μg/mL to 10 μg/mL) | Z (MIC of greater than 10 μg/mL) |  | Z (key: X: MIC of less than 1 μg/mL; Y: MIC of 1 μg/mL to 10 μg/mL; Z: MIC of greater than 10 μg/mL) | Z (key: X: MIC of less than 1 μg/mL; Y: MIC of 1 μg/mL to 10 μg/mL; Z: MIC of greater than 10 μg/mL)
8 | CSC(=O)N[C@H]1Cc2cccc(C(=O)O)c2OB1O [Compound 11, (R)-2-hydroxy-3-(methylthiocarbonylamino)-3,4-dihydro-2H-benzo[e][1,2]oxaborinine-8-carboxylic acid] | Y (MIC of 1 μg/mL to 10 μg/mL) | Y (MIC of 1 μg/mL to 10 μg/mL) | X (MIC of less than 1 μg/mL) | Y (MIC of 1 μg/mL to 10 μg/mL) |  | > 9.00 | X (MIC of less than 1 μg/mL) | Y (MIC of 1 μg/mL to 10 μg/mL) | Y (MIC of 1 μg/mL to 10 μg/mL) |  | Y (key: X: MIC of less than 1 μg/mL; Y: MIC of 1 μg/mL to 10 μg/mL; Z: MIC of greater than 10 μg/mL) | Y (key: X: MIC of less than 1 μg/mL; Y: MIC of 1 μg/mL to 10 μg/mL; Z: MIC of greater than 10 μg/mL)
9 | Cn1nnnc1SCC(=O)N[C@H]1Cc2cccc(C(=O)O)c2OB1O [Compound 2, (R)-2-hydroxy-3-(2-(1-methyl-1H-tetrazol-5-ylthio)acetamido)-3,4-dihydro-2H-benzo[e][1,2]oxaborinine-8-carboxylic acid] | Y (MIC of 1 μg/mL to 10 μg/mL) | Y (MIC of 1 μg/mL to 10 μg/mL) | X (MIC of less than 1 μg/mL) | X (MIC of less than 1 μg/mL) |  | > 9.00 | X (MIC of less than 1 μg/mL) | X (MIC of less than 1 μg/mL) | Y (MIC of 1 μg/mL to 10 μg/mL) |  | Y (key: X: MIC of less than 1 μg/mL; Y: MIC of 1 μg/mL to 10 μg/mL; Z: MIC of greater than 10 μg/mL) | X (key: X: MIC of less than 1 μg/mL; Y: MIC of 1 μg/mL to 10 μg/mL; Z: MIC of greater than 10 μg/mL)
10 | CN(C)C(=O)C(=O)N[C@H]1Cc2cccc(C(=O)O)c2OB1O [Compound 9, (R)-3-(2-(dimethylamino)-2-oxoacetamido)-2-hydroxy-3,4-dihydro-2H-benzo[e][1,2]oxaborinine-8-carboxylic acid] | Y (MIC of 1 μg/mL to 10 μg/mL) | Z (MIC of greater than 10 μg/mL) | X (MIC of less than 1 μg/mL) | Y (MIC of 1 μg/mL to 10 μg/mL) |  |  | X (MIC of less than 1 μg/mL) | Y (MIC of 1 μg/mL to 10 μg/mL) | Y (MIC of 1 μg/mL to 10 μg/mL) |  | Y (key: X: MIC of less than 1 μg/mL; Y: MIC of 1 μg/mL to 10 μg/mL; Z: MIC of greater than 10 μg/mL) | Y (key: X: MIC of less than 1 μg/mL; Y: MIC of 1 μg/mL to 10 μg/mL; Z: MIC of greater than 10 μg/mL)
